In PubChem BioAssay (NCI):
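Method: 48-hour compound exposure of cells in 96-well plates, five concentrations, linear interpolation of endpoints. GI50 is the concentration that inhibits growth by half. Definition used: TGI = concentration required for complete inhibition of growth.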

Columns and labels:
Assay in all cases: NCI-60 cell line screen, 48 h
ACHN renal = test system: ACHN renal
SK-MEL-5 melanoma = test system: SK-MEL-5 melanoma
HS 578T breast = test system: HS 578T breast
OVCAR-3 ovarian = test system: OVCAR-3 ovarian
SF-295 CNS = test system: SF-295 CNS
T-47D breast = test system: T-47D breast
IGROV1 ovarian = test system: IGROV1 ovarian
COLO 205 colon = test system: COLO 205 colon
SW-620 colon = test system: SW-620 colon
SR leukemia = test system: SR leukemia
MOLT-4 leukemia = test system: MOLT-4 leukemia
CCRF-CEM leukemia = test system: CCRF-CEM leukemia
HCT-116 colon = test system: HCT-116 colon
786-0 renal = test system: 786-0 renal
M14 melanoma = test system: M14 melanoma
U251 CNS = test system: U251 CNS
K-562 leukemia = test system: K-562 leukemia
SF-268 CNS = test system: SF-268 CNS
SK-MEL-2 melanoma = test system: SK-MEL-2 melanoma
A498 renal = test system: A498 renal
HOP-92 NSCLC = test system: HOP-92 NSCLC
RPMI-8226 leukemia = test system: RPMI-8226 leukemia
SN12C renal = test system: SN12C renal
SK-OV-3 ovarian = test system: SK-OV-3 ovarian
SNB-19 CNS = test system: SNB-19 CNS
TK-10 renal = test system: TK-10 renal
DU-145 prostate = test system: DU-145 prostate
SNB-75 CNS = test system: SNB-75 CNS
HCT-15 colon = test system: HCT-15 colon
MCF7 breast = test system: MCF7 breast
BT-549 breast = test system: BT-549 breast
MDA-MB-435 = test system: MDA-MB-435
OVCAR-4 ovarian = test system: OVCAR-4 ovarian
A549 NSCLC = test system: A549 NSCLC
EKVX NSCLC = test system: EKVX NSCLC
MALME-3M melanoma = test system: MALME-3M melanoma
NCI-H522 lung = test system: NCI-H522 lung
CAKI-1 renal = test system: CAKI-1 renal
OVCAR-8 ovarian = test system: OVCAR-8 ovarian
KM12 colon = test system: KM12 colon
NCI/ADR-RES ovarian = test system: NCI/ADR-RES ovarian
SK-MEL-28 melanoma = test system: SK-MEL-28 melanoma
SF-539 CNS = test system: SF-539 CNS
HCC-2998 colon = test system: HCC-2998 colon
NCI-H23 lung = test system: NCI-H23 lung
NCI-H226 lung = test system: NCI-H226 lung
UACC-257 melanoma = test system: UACC-257 melanoma
HOP-62 NSCLC = test system: HOP-62 NSCLC
MDA-MB-231 breast = test system: MDA-MB-231 breast
OVCAR-5 ovarian = test system: OVCAR-5 ovarian
RXF 393 renal = test system: RXF 393 renal
NCI-H460 lung = test system: NCI-H460 lung
HT29 colon = test system: HT29 colon
UACC-62 melanoma = test system: UACC-62 melanoma
PC-3 prostate = test system: PC-3 prostate
HL-60(TB) leukemia = test system: HL-60(TB) leukemia
UO-31 renal = test system: UO-31 renal

**Q.** With `NS(=O)(=O)c1ccc(Nc2nc(Nc3ccccc3)nc(-n3nc(-c4ccccc4)cc3-c3ccccc3)n2)cc1` as the compound, how does the GI50 (ACHN renal) read?
**A.** 2590 nM

**Q.** And the TGI (ACHN renal)?
**A.** 9.95 µM

**Q.** What about the GI50 (SK-MEL-5 melanoma) of the same compound?
**A.** 2330 nM

**Q.** What about the TGI (SK-MEL-5 melanoma) of the same compound?
**A.** 5.54 µM

**Q.** What about the GI50 (HS 578T breast) of the same compound?
**A.** 4.31 µM

**Q.** What about the TGI (HS 578T breast) of the same compound?
**A.** 62.7 µM

**Q.** What about the GI50 (OVCAR-3 ovarian) of the same compound?
**A.** 2240 nM

**Q.** What about the TGI (OVCAR-3 ovarian) of the same compound?
**A.** 4.97 µM

**Q.** And the GI50 (SF-295 CNS)?
**A.** 3.02 µM

**Q.** And the TGI (SF-295 CNS)?
**A.** 10.5 µM

**Q.** And the GI50 (T-47D breast)?
**A.** 2960 nM

**Q.** What about the TGI (T-47D breast) of the same compound?
**A.** 13.2 µM

**Q.** What about the GI50 (IGROV1 ovarian) of the same compound?
**A.** 2720 nM

**Q.** And the TGI (IGROV1 ovarian)?
**A.** 11.4 µM

**Q.** And the GI50 (COLO 205 colon)?
**A.** 1780 nM

**Q.** And the TGI (COLO 205 colon)?
**A.** 3.27 µM

**Q.** What about the GI50 (SW-620 colon) of the same compound?
**A.** 3.52 µM

**Q.** What about the TGI (SW-620 colon) of the same compound?
**A.** 32.1 µM

**Q.** And the GI50 (SR leukemia)?
**A.** 1940 nM

**Q.** What about the TGI (SR leukemia) of the same compound?
**A.** 5.94 µM

**Q.** What about the GI50 (MOLT-4 leukemia) of the same compound?
**A.** 1510 nM

**Q.** And the TGI (MOLT-4 leukemia)?
**A.** 6.47 µM

**Q.** What about the GI50 (CCRF-CEM leukemia) of the same compound?
**A.** 2940 nM

**Q.** And the TGI (CCRF-CEM leukemia)?
**A.** > 100 µM

**Q.** What about the GI50 (HCT-116 colon) of the same compound?
**A.** 1740 nM

**Q.** What about the TGI (HCT-116 colon) of the same compound?
**A.** 3.39 µM

**Q.** And the GI50 (786-0 renal)?
**A.** 3.09 µM

**Q.** And the TGI (786-0 renal)?
**A.** 10.6 µM

**Q.** What about the GI50 (M14 melanoma) of the same compound?
**A.** 3.22 µM

**Q.** What about the TGI (M14 melanoma) of the same compound?
**A.** 12.5 µM

**Q.** And the GI50 (U251 CNS)?
**A.** 2910 nM

**Q.** And the TGI (U251 CNS)?
**A.** 10.3 µM

**Q.** What about the GI50 (K-562 leukemia) of the same compound?
**A.** 2620 nM

**Q.** What about the TGI (K-562 leukemia) of the same compound?
**A.** 10.8 µM

**Q.** What about the GI50 (SF-268 CNS) of the same compound?
**A.** 3.97 µM

**Q.** And the TGI (SF-268 CNS)?
**A.** > 100 µM

**Q.** What about the GI50 (SK-MEL-2 melanoma) of the same compound?
**A.** 2390 nM

**Q.** What about the TGI (SK-MEL-2 melanoma) of the same compound?
**A.** 6.95 µM

**Q.** What about the GI50 (A498 renal) of the same compound?
**A.** 3.34 µM

**Q.** And the TGI (A498 renal)?
**A.** 8.08 µM

**Q.** What about the GI50 (HOP-92 NSCLC) of the same compound?
**A.** 2160 nM

**Q.** What about the TGI (HOP-92 NSCLC) of the same compound?
**A.** 6.18 µM

**Q.** What about the GI50 (RPMI-8226 leukemia) of the same compound?
**A.** 2490 nM

**Q.** And the TGI (RPMI-8226 leukemia)?
**A.** 8.69 µM

**Q.** What about the GI50 (SN12C renal) of the same compound?
**A.** 1470 nM

**Q.** And the TGI (SN12C renal)?
**A.** 2880 nM

**Q.** What about the GI50 (SK-OV-3 ovarian) of the same compound?
**A.** 5.37 µM

**Q.** What about the TGI (SK-OV-3 ovarian) of the same compound?
**A.** > 100 µM

**Q.** What about the GI50 (SNB-19 CNS) of the same compound?
**A.** 3.43 µM

**Q.** What about the TGI (SNB-19 CNS) of the same compound?
**A.** 20.9 µM

**Q.** What about the GI50 (TK-10 renal) of the same compound?
**A.** 3.87 µM

**Q.** What about the TGI (TK-10 renal) of the same compound?
**A.** 8.93 µM

**Q.** And the GI50 (DU-145 prostate)?
**A.** 3.16 µM

**Q.** What about the TGI (DU-145 prostate) of the same compound?
**A.** 13 µM

**Q.** What about the GI50 (SNB-75 CNS) of the same compound?
**A.** 4.61 µM

**Q.** What about the TGI (SNB-75 CNS) of the same compound?
**A.** > 100 µM

**Q.** What about the GI50 (HCT-15 colon) of the same compound?
**A.** 3.08 µM

**Q.** What about the TGI (HCT-15 colon) of the same compound?
**A.** 11.2 µM

**Q.** What about the GI50 (MCF7 breast) of the same compound?
**A.** 2270 nM

**Q.** And the TGI (MCF7 breast)?
**A.** 6.61 µM

**Q.** What about the GI50 (BT-549 breast) of the same compound?
**A.** 2240 nM

**Q.** And the TGI (BT-549 breast)?
**A.** 5.54 µM

**Q.** What about the GI50 (MDA-MB-435) of the same compound?
**A.** 3.32 µM

**Q.** What about the TGI (MDA-MB-435) of the same compound?
**A.** 12.9 µM

**Q.** What about the GI50 (OVCAR-4 ovarian) of the same compound?
**A.** 2770 nM

**Q.** And the TGI (OVCAR-4 ovarian)?
**A.** 9.32 µM

**Q.** And the GI50 (A549 NSCLC)?
**A.** 3.18 µM

**Q.** What about the TGI (A549 NSCLC) of the same compound?
**A.** 17.9 µM

**Q.** And the GI50 (EKVX NSCLC)?
**A.** 2960 nM

**Q.** What about the TGI (EKVX NSCLC) of the same compound?
**A.** 17.4 µM

**Q.** What about the GI50 (MALME-3M melanoma) of the same compound?
**A.** 2430 nM

**Q.** And the TGI (MALME-3M melanoma)?
**A.** 7.09 µM

**Q.** What about the GI50 (NCI-H522 lung) of the same compound?
**A.** 2290 nM

**Q.** And the TGI (NCI-H522 lung)?
**A.** 7.39 µM

**Q.** And the GI50 (CAKI-1 renal)?
**A.** 2450 nM

**Q.** What about the TGI (CAKI-1 renal) of the same compound?
**A.** 9.55 µM

**Q.** And the GI50 (OVCAR-8 ovarian)?
**A.** 3.22 µM

**Q.** And the TGI (OVCAR-8 ovarian)?
**A.** 16 µM

**Q.** And the GI50 (KM12 colon)?
**A.** 2770 nM

**Q.** And the TGI (KM12 colon)?
**A.** 8.2 µM

**Q.** And the GI50 (NCI/ADR-RES ovarian)?
**A.** 2930 nM

**Q.** What about the TGI (NCI/ADR-RES ovarian) of the same compound?
**A.** 11 µM

**Q.** And the GI50 (SK-MEL-28 melanoma)?
**A.** 3.87 µM

**Q.** What about the TGI (SK-MEL-28 melanoma) of the same compound?
**A.** 16.9 µM

**Q.** What about the GI50 (SF-539 CNS) of the same compound?
**A.** 2660 nM

**Q.** And the TGI (SF-539 CNS)?
**A.** 10.3 µM

**Q.** And the GI50 (HCC-2998 colon)?
**A.** 2980 nM

**Q.** What about the TGI (HCC-2998 colon) of the same compound?
**A.** 6.84 µM

**Q.** And the GI50 (NCI-H23 lung)?
**A.** 2840 nM

**Q.** What about the TGI (NCI-H23 lung) of the same compound?
**A.** 9.12 µM

**Q.** What about the GI50 (NCI-H226 lung) of the same compound?
**A.** 2520 nM

**Q.** What about the TGI (NCI-H226 lung) of the same compound?
**A.** 11 µM

**Q.** And the GI50 (UACC-257 melanoma)?
**A.** 3.26 µM

**Q.** And the TGI (UACC-257 melanoma)?
**A.** 23.3 µM

**Q.** What about the GI50 (HOP-62 NSCLC) of the same compound?
**A.** 3.29 µM

**Q.** And the TGI (HOP-62 NSCLC)?
**A.** 12.4 µM

**Q.** And the GI50 (MDA-MB-231 breast)?
**A.** 1810 nM

**Q.** What about the TGI (MDA-MB-231 breast) of the same compound?
**A.** 3.85 µM

**Q.** And the GI50 (OVCAR-5 ovarian)?
**A.** 3.34 µM

**Q.** And the TGI (OVCAR-5 ovarian)?
**A.** 14.3 µM

**Q.** What about the GI50 (RXF 393 renal) of the same compound?
**A.** 1990 nM

**Q.** And the TGI (RXF 393 renal)?
**A.** 5.23 µM

**Q.** What about the GI50 (NCI-H460 lung) of the same compound?
**A.** 2070 nM

**Q.** And the TGI (NCI-H460 lung)?
**A.** 4.66 µM

**Q.** And the GI50 (HT29 colon)?
**A.** 2380 nM

**Q.** And the TGI (HT29 colon)?
**A.** 5.48 µM

**Q.** What about the GI50 (UACC-62 melanoma) of the same compound?
**A.** 1810 nM

**Q.** And the TGI (UACC-62 melanoma)?
**A.** 3.76 µM

**Q.** And the GI50 (PC-3 prostate)?
**A.** 2370 nM

**Q.** What about the TGI (PC-3 prostate) of the same compound?
**A.** 7.89 µM

**Q.** And the GI50 (HL-60(TB) leukemia)?
**A.** 2240 nM

**Q.** What about the TGI (HL-60(TB) leukemia) of the same compound?
**A.** 8.26 µM

**Q.** What about the GI50 (UO-31 renal) of the same compound?
**A.** 2380 nM

**Q.** And the TGI (UO-31 renal)?
**A.** 10 µM
